Measured values: patent US12479847B2 (DANA-FARBER CANCER INSTITUTE, INC., priority 2019, dated 2025)

These compounds were tested against human LRRK2 kinase (Homo sapiens, UniProt Q5S007). Conditions: LRRK2, ADP-Glo, ATP 10 μM, 60 minutes at 25° C.
human LRRK2 kinase, sequence (Q5S007 whole entry): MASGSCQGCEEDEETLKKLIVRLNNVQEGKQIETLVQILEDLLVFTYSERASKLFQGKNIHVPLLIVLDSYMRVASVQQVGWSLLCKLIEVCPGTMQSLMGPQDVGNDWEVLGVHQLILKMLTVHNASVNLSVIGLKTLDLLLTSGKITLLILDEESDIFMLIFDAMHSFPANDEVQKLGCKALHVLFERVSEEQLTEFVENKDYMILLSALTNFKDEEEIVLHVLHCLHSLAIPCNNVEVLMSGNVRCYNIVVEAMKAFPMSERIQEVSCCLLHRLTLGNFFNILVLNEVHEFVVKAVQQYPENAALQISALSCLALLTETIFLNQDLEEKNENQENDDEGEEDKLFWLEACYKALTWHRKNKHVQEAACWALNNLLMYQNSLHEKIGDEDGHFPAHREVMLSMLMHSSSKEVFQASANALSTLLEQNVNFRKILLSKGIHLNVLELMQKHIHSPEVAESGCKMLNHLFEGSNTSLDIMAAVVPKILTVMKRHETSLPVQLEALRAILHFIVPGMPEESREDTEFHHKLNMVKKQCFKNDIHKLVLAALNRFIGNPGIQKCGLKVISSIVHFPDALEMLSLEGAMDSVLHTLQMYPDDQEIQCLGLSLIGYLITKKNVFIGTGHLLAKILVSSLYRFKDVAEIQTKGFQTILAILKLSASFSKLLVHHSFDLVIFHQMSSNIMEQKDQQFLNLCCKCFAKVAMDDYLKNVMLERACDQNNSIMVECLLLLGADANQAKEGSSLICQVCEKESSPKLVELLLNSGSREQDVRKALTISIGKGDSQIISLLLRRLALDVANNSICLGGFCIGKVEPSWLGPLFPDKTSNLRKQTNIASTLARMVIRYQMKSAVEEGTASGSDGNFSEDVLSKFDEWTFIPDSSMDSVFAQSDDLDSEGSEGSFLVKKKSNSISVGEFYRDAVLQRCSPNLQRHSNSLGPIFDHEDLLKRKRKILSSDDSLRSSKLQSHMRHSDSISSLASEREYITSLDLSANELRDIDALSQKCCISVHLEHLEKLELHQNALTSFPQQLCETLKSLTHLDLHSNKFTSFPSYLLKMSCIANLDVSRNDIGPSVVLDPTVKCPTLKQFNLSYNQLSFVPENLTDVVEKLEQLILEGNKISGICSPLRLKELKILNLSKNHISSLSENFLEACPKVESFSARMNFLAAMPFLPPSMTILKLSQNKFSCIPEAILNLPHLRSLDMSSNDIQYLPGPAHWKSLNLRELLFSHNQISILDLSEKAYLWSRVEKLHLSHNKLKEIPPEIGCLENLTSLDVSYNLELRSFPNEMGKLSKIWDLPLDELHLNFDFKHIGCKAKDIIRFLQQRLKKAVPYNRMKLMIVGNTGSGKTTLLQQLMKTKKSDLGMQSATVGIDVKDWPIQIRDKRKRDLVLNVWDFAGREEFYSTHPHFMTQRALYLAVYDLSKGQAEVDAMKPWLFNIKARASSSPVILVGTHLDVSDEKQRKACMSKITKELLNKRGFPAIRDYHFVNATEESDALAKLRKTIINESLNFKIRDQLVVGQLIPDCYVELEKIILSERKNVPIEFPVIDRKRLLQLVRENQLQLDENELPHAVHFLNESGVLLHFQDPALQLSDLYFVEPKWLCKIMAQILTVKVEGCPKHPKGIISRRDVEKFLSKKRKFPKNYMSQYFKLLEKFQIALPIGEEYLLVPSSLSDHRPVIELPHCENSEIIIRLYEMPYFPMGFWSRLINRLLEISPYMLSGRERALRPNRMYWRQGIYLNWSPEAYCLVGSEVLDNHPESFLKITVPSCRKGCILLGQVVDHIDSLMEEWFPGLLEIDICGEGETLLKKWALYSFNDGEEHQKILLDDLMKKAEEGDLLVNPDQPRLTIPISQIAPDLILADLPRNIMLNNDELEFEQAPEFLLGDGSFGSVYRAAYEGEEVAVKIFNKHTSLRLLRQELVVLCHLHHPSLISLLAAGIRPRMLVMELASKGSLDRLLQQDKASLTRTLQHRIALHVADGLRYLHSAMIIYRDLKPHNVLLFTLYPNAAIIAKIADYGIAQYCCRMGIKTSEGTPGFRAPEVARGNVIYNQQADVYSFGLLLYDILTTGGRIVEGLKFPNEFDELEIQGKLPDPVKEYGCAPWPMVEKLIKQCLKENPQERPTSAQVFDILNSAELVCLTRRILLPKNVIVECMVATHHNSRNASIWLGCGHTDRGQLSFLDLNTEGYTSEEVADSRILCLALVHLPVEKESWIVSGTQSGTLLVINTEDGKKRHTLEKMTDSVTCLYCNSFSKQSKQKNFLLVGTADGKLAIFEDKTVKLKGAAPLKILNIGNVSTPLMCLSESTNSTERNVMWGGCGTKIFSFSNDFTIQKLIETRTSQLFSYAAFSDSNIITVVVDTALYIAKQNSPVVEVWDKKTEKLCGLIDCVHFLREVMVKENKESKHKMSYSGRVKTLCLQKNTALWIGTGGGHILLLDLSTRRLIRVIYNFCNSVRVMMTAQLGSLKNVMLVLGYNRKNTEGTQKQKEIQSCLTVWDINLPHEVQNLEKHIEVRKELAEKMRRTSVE
Protocol: Assay kits from Promega™ Corporation were used according to instructions and adapted as outlined herein. […] The kinase reaction was performed with kinase reaction buffer (40 mM Tris base pH 7.4, 20 mM MgCl2, 0.5 mM dithiothreitol), 0.1 mg/ml bovine serum albumin, distilled H2O). […] In brief, the kinase reactions were started by addition of ATP to the kinase reaction mixture. The resulting mixture was incubated for 60 minutes at 25° C., and then stopped by adding 5 μl of ADP-Glo™ reagent. After incubation at room temperature in the dark for 40 minutes, 10 μl of kinase detection reagent was added per well, and the mixture was incubated for 10 minutes. […] Positive and negative controls were performed in 0.5% DMSO in the presence and absence of LRRK2 kinases. Curve fitting and data presentations were performed using GraphPad Prism version 5.0 (GraphPad Software, Inc.).

| SMILES | IC50 [nM] |
| --- | --- |
| COc1cc(P2(=O)CCN(C3CCOCC3)CC2)ccc1Nc1nc(NC2CCCC2)c2c(Cl)c[nH]c2n1 [Compound 79] | 10 to 100 |
| COCCNc1nc(Nc2ccc(C(=O)N3CCOCC3)c3c2OCCO3)nc2[nH]cc(Cl)c12 [Compound 9, (8-((5-chloro-4-((2-methoxyethyl)amino)-7H-pyrrolo[2,3-d]pyrimidin-2-yl)amino)-2,3-dihydrobenzo[b][1,4]dioxin-5-yl)(morpholino)methanone] | < 10 |
| O=C(c1ccc(Nc2nc(NC3CC3)c3c(Cl)c[nH]c3n2)c2c1OCCO2)N1CCC(N2CCOCC2)CC1 [Compound 3, (8-((5-chloro-4-(cyclopropylamino)-7H-pyrrolo[2,3-d]pyrimidin-2-yl)amino)-2,3-dihydrobenzo[b][1,4]dioxin-5-yl)(4-morpholinopiperidin-1-yl)methanone] | < 10 |
| COc1cc(P2(=O)CCN(C3CCOCC3)CC2)ccc1Nc1nc(NC2CCCCC2)c2c(Cl)c[nH]c2n1 [Compound 81, 4-(4-((5-chloro-4-(cyclohexylamino)-7H-pyrrolo[2,3-d]pyrimidin-2-yl)amino)-3-methoxyphenyl)-1-(tetrahydro-2H-pyran-4-yl)-1,4-azaphosphinane 4-oxide] | 10 to 100 |
| O=C(c1ccc(Nc2nc(NCC3CC3)c3c(Cl)c[nH]c3n2)c2c1OCCO2)N1CCOCC1 [Compound 65, (8-((5-chloro-4-((cyclopropylmethyl)amino)-7H-pyrrolo[2,3-d]pyrimidin-2-yl)amino)-2,3-dihydrobenzo[b][1,4]dioxin-5-yl)(morpholino)methanone] | < 10 |
| O=C(c1ccc(Nc2nc(N[C@H]3CCOC3)c3c(Cl)c[nH]c3n2)c2c1OCCO2)N1CCOCC1 [Compound 95] | < 10 |
| COc1cc(S(C)(=O)=O)ccc1Nc1nc(NC2CCCCC2)c2c(Cl)c[nH]c2n1 [Compound 59, 5-chloro-N4-cyclohexyl-N2-(2-methoxy-4-(methylsulfonyl)phenyl)-7H-pyrrolo[2,3-d]pyrimidine-2,4-diamine] | 100 to 1000 |
| COc1cc(S(=O)(=O)N2CCOCC2)ccc1Nc1nc(NC2CCC2)c2c(Cl)c[nH]c2n1 [Compound 7, 5-chloro-N4-cyclobutyl-N2-(2-methoxy-4-(morpholinosulfonyl)phenyl)-7H-pyrrolo[2,3-d]pyrimidine-2,4-diamine] | 100 to 1000 |
| CNc1nc(Nc2ccc(C(=O)N3CCOCC3)c3c2OCCO3)nc2[nH]cc(Cl)c12 [Compound 14, (8-((5-chloro-4-(methylamino)-7H-pyrrolo[2,3-d]pyrimidin-2-yl)amino)-2,3-dihydrobenzo[b][1,4]dioxin-5-yl)(morpholino)methanone] | < 10 |
| COc1cc(P2(=O)CCN(C3CC3)CC2)ccc1Nc1nc(NC2CCCC2)c2c(Cl)c[nH]c2n1 [Compound 78, 4-(4-((5-chloro-4-(cyclopentylamino)-7H-pyrrolo[2,3-d]pyrimidin-2-yl)amino)-3-methoxyphenyl)-1-cyclopropyl-1,4-azaphosphinane 4-oxide] | 10 to 100 |
| COc1cc(S(=O)(=O)N2CCOCC2)ccc1Nc1nc(N[C@H]2CCOC2)c2c(Cl)c[nH]c2n1 [Compound 60, (S)-5-chloro-N2-(2-methoxy-4-(morpholinosulfonyl)phenyl)-N4-(tetrahydrofuran-3-yl)-7H-pyrrolo[2,3-d]pyrimidine-2,4-diamine] | 10 to 100 |
| COc1cc(P2(=O)CCN(C(C)=O)CC2)ccc1Nc1nc(NC2CCC2)c2c(Cl)c[nH]c2n1 [Compound 92] | 10 to 100 |
| COc1cc(P2(=O)CCN(C3CC3)CC2)ccc1Nc1nc(NC2CCC2)c2c(Cl)c[nH]c2n1 [Compound 104, 4-(4-((5-chloro-4-(cyclobutylamino)-7H-pyrrolo[2,3-d]pyrimidin-2-yl)amino)-3-methoxyphenyl)-1-cyclopropyl-1,4-azaphosphinane 4-oxide] | 10 to 100 |
| CCCCNc1nc(Nc2ccc(S(=O)(=O)N3CCOCC3)cc2OC)nc2[nH]cc(Cl)c12 [Compound 71, N4-butyl-5-chloro-N2-(2-methoxy-4-(morpholinosulfonyl)phenyl)-7H-pyrrolo[2,3-d]pyrimidine-2,4-diamine] | 10 to 100 |
| CCCNc1nc(Nc2ccc(C(=O)N3CCC(N4CCOCC4)CC3)c3c2OCC3)nc2[nH]cc(Cl)c12 [Compound 102, (7-((5-chloro-4-(propylamino)-7H-pyrrolo[2,3-d]pyrimidin-2-yl)amino)-2,3-dihydrobenzofuran-4-yl)(4-morpholinopiperidin-1-yl)methanone] | 10 to 100 |
| COc1cc(S(C)(=O)=O)ccc1Nc1nc(NC2CCC2)c2c(Cl)c[nH]c2n1 [Compound 29, 5-chloro-N4-cyclobutyl-N2-(2-methoxy-4-(methylsulfonyl)phenyl)-7H-pyrrolo[2,3-d]pyrimidine-2,4-diamine] | 10 to 100 |

| SMILES | IC50 [nM] |
| --- | --- |
| CCC(C)Nc1nc(Nc2ccc(S(C)(=O)=O)cc2OC)nc2[nH]cc(Cl)c12 (stereo in doubt) [Compound 53, (S)—N4-(sec-butyl)-5-chloro-N2-(2-methoxy-4-(methylsulfonyl)phenyl)-7H-pyrrolo[2,3-d]pyrimidine-2,4-diamine] | 100 to 1000 |
| COc1cc(S(C)(=O)=O)ccc1Nc1nc(NC2CC2)c2c(Cl)c[nH]c2n1 [Compound 26, 5-chloro-N4-cyclopropyl-N2-(2-methoxy-4-(methylsulfonyl)phenyl)-7H-pyrrolo[2,3-d]pyrimidine-2,4-diamine] | < 10 |
| COc1cc(S(=O)(=O)N2CCC(N3CCOCC3)CC2)ccc1Nc1nc(NC2CCCC2)c2c(Cl)c[nH]c2n1 [Compound 56, 5-chloro-N4-cyclopentyl-N2-(2-methoxy-4-((4-morpholinopiperidin-1-yl)sulfonyl)phenyl)-7H-pyrrolo[2,3-d]pyrimidine-2,4-diamine] | 10 to 100 |
| CNc1nc(Nc2ccc(C(=O)N3CCC(N4CCOCC4)CC3)c3c2OCC3)nc2[nH]cc(Cl)c12 [Compound 86, (7-((5-chloro-4-(methylamino)-7H-pyrrolo[2,3-d]pyrimidin-2-yl)amino)-2,3-dihydrobenzofuran-4-yl)(4-morpholinopiperidin-1-yl)methanone] | < 10 |
| COc1cc(S(=O)(=O)N2CCOCC2)ccc1Nc1nc(NC2CCCC2)c2c(Cl)c[nH]c2n1 [Compound 55, 5-chloro-N4-cyclopentyl-N2-(2-methoxy-4-(morpholinosulfonyl)phenyl)-7H-pyrrolo[2,3-d]pyrimidine-2,4-diamine] | 100 to 1000 |
| COc1cc(S(=O)(=O)N2CCOCC2)ccc1Nc1nc(NC2CCOCC2)c2c(Cl)c[nH]c2n1 [Compound 62, 5-chloro-N2-(2-methoxy-4-(morpholinosulfonyl)phenyl)-N4-(tetrahydro-2H-pyran-4-yl)-7H-pyrrolo[2,3-d]pyrimidine-2,4-diamine] | < 10 |
| CS(=O)(=O)CCNc1nc(Nc2ccc(C(=O)N3CCOCC3)c3c2OCCO3)nc2[nH]cc(Cl)c12 [Compound 70, (8-((5-chloro-4-((2-(methylsulfonyl)ethyl)amino)-7H-pyrrolo[2,3-d]pyrimidin-2-yl)amino)-2,3-dihydrobenzo[b][1,4]dioxin-5-yl)(morpholino)methanone] | < 10 |
| COc1cc(S(=O)(=O)N2CCOCC2)ccc1Nc1nc(NC2CC2)c2c(Cl)c[nH]c2n1 [Compound 24, 5-chloro-N4-cyclopropyl-N2-(2-methoxy-4-(morpholinosulfonyl)phenyl)-7H-pyrrolo[2,3-d]pyrimidine-2,4-diamine] | 10 to 100 |
| CCCNc1nc(Nc2ccc(P3(=O)CCN(C4CC4)CC3)cc2OC)nc2[nH]cc(Cl)c12 [Compound 99, 4-(4-((5-chloro-4-(propylamino)-7H-pyrrolo[2,3-d]pyrimidin-2-yl)amino)-3-methoxyphenyl)-1-cyclopropyl-1,4-azaphosphinane 4-oxide] | 10 to 100 |
| COc1cc(S(=O)(=O)N2CCOCC2)ccc1Nc1nc(NC2CCCCC2)c2c(Cl)c[nH]c2n1 [Compound 58, 5-chloro-N4-cyclohexyl-N2-(2-methoxy-4-(morpholinosulfonyl)phenyl)-7H-pyrrolo[2,3-d]pyrimidine-2,4-diamine] | 100 to 1000 |
| O=C(c1ccc(Nc2nc(NC3CCCCC3)c3c(Cl)c[nH]c3n2)c2c1CCO2)N1CCC(N2CCOCC2)CC1 [Compound 80, (7-((5-chloro-4-(cyclohexylamino)-7H-pyrrolo[2,3-d]pyrimidin-2-yl)amino)-2,3-dihydrobenzofuran-4-yl)(4-morpholinopiperidin-1-yl)methanone] | 100 to 1000 |
| CCNc1nc(Nc2ccc(S(=O)(=O)N3CCOCC3)cc2OC)nc2[nH]cc(Cl)c12 [Compound 6, 5-chloro-N4-ethyl-N2-(2-methoxy-4-(morpholinosulfonyl)phenyl)-7H-pyrrolo[2,3-d]pyrimidine-2,4-diamine] | > 1000 |
| O=C(c1ccc(Nc2nc(NC3CCC3)c3c(Cl)c[nH]c3n2)c2c1OCCO2)N1CCC(N2CCOCC2)CC1 [Compound 4, (8-((5-chloro-4-(cyclobutylamino)-7H-pyrrolo[2,3-d]pyrimidin-2-yl)amino)-2,3-dihydrobenzo[b][1,4]dioxin-5-yl)(4-morpholinopiperidin-1-yl)methanone] | < 10 |
| CCNc1nc(Nc2ccc(C(=O)N3CCC(N4CCOCC4)CC3)c3c2OCC3)nc2[nH]cc(Cl)c12 [Compound 105, (7-((5-chloro-4-(ethylamino)-7H-pyrrolo[2,3-d]pyrimidin-2-yl)amino)-2,3-dihydrobenzofuran-4-yl)(4-morpholinopiperidin-1-yl)methanone] | < 10 |
| COc1cc(S(=O)(=O)N2CCOCC2)ccc1Nc1nc(NCCS(C)(=O)=O)c2c(Cl)c[nH]c2n1 [Compound 68, 5-chloro-N2-(2-methoxy-4-(morpholinosulfonyl)phenyl)-N4-(2-(methylsulfonyl)ethyl)-7H-pyrrolo[2,3-d]pyrimidine-2,4-diamine] | 10 to 100 |
| COCCNc1nc(Nc2ccc(C(=O)N3CCC(N4CCOCC4)CC3)c3c2OCCO3)nc2[nH]cc(Cl)c12 [Compound 5, (8-((5-chloro-4-((2-methoxyethyl)amino)-7H-pyrrolo[2,3-d]pyrimidin-2-yl)amino)-2,3-dihydrobenzo[b][1,4]dioxin-5-yl)(4-morpholinopiperidin-1-yl)methanone] | < 10 |
